Consider ten compounds from US20070166729A1, “Method and reagent for sequencing” (Hitachi, Ltd., priority 2005, published 2007).

One assay deals with thermostable PPDK. To be noted: cited from earlier work; for Michaelis constants / Specificity: thermostable PPDK; for Michaelis constants: substrate named in brackets; for Specificity: relative value in brackets, AMP = 100.
The target in the next assay is ATP sulfurylase (Saccharomyces cerevisiae, UniProt P08536). The conditions noted are these: read-out: Michaelis constant of reaction for forming the complexes of APS and the enzyme (Km), has been reported; cited from earlier work.
Assay [1] concerns the target T1, luciferase (Photinus pyralis, UniProt P08659). Kind of assay: APS as substrate for luminescent reaction catalyzed by luciferase. The conditions noted are these: 5 μM APS, reaction solution 100 μl. It counts as biochemical. On the procedure:
Pyrosequencing detects chemiluminescence derived from ATP produced from the reaction of PPi produced in DNA complementary strand synthesis with APS in the presence of ATP sulfurylase. […] For example, APS, though having approximately 1/1000 of reaction efficiency of ATP, reacts as a substrate with luciferase to emit light. To efficiently convert PPi produced in complementary strand synthesis to ATP, approximately 5 μM APS must usually be added to the reaction solution. When the volume of the reaction solution is set to 100 μl, 5 μM APS generates luminescence corresponding to approximately 500 fmol ATP. Thus, DNA sequencing with high precision by pyrosequencing must employ a DNA sample of a picomole level and large amounts of reagents commensurate therewith.
When sequencing is performed with 0.1 pmol DNA sample, which is 1/10 of the DNA sample amount (1 pmol) conventionally used, the amount of background light must be equal to or lower than the amount of chemiluminescence emitted by 0.01 pmol ATP. […] Under the conditions of pyrosequencing, the efficiency of the luminescence process with ATP as a substrate is reduced due to the coexistence of apyrase, an enzyme that degrades dNTP and ATP. […]

Assay [2] addresses T1, luciferase. To be noted: relative to ATP, cited from earlier work.
Assay [3] deals with luciferase luminescence reaction with ATP produced using PPi. The assay can be described thus: Luminescence from DNA complementary strand synthesis at varying AMP concentrations (FIG. 7). To be noted: luminescence obtained by adding DNA. It counts as biochemical. An excerpt: FIG. 7 is a graph showing the relationship between AMP concentrations and signal intensity variations obtained in luciferase luminescence reaction with ATP produced using PPi obtained in DNA complementary strand synthesis. The horizontal axis of the graph indicates AMP concentrations in the reaction solution;
The luminescence obtained by adding DNA (light emitted by PPi obtained in DNA complementary strand synthesis) is generated only in the presence of AMP. […] AMP concentrations giving sufficient luminescence intensity are within the range of 30 to 600 μM. As is obvious, the use of AMP within this concentration range enables sequencing with 0.1 pmol DNA sample.

In a further assay the test system is thermostable luciferase. The conditions noted are these: substrate named in brackets; cited from earlier work.

Each structure is given as a SMILES string.

T1 sequence (P08659 whole entry, species assumed): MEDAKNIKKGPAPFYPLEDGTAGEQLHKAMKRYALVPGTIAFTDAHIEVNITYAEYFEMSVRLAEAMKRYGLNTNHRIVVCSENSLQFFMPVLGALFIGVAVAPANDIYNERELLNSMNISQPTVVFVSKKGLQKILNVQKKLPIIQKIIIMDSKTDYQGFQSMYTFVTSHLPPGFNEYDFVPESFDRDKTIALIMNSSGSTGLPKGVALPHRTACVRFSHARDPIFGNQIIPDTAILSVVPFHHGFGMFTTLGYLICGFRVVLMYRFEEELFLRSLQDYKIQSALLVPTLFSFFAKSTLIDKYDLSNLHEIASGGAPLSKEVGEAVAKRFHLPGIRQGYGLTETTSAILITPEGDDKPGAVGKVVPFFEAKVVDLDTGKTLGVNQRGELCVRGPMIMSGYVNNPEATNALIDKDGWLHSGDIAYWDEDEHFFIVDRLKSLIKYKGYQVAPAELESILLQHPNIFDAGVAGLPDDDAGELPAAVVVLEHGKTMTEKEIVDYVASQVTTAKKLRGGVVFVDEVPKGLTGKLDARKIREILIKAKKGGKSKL
ATP sulfurylase, sequence (P08536 whole entry, species assumed): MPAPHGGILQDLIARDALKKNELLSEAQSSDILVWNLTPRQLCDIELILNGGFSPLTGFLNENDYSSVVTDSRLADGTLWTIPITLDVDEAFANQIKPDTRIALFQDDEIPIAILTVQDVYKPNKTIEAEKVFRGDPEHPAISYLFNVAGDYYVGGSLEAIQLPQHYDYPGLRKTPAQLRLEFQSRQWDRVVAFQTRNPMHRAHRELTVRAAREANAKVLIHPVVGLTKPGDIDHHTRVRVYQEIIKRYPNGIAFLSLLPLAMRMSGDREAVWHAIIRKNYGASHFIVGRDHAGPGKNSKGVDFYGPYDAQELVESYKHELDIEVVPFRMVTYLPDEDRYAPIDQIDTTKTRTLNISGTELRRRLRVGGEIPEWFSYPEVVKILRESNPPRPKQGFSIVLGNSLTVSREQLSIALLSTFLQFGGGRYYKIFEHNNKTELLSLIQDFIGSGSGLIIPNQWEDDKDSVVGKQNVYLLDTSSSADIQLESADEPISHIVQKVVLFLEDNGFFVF

`O=P(O)(O)OP(=O)(O)O` [PPi, pyrophosphate]: the Michaelis constants in the assay with thermostable PPDK was 381 µM.

Take `C=C(OP(=O)(O)O)C(=O)O` [phosphoenolpyruvate]: the Michaelis constants with thermostable PPDK is 281 µM.

`Nc1ncnc2c1ncn2[C@@H]1O[C@H](COP(=O)(O)OS(=O)(=O)O)[C@@H](O)[C@H]1O` [APS, adenosine 5′-phosphosulfate]: at ATP sulfurylase, the Km was 0.56 µM. Besides, the “luminescence corresponding to ATP” value on luciferase [1] is reported as “approximately 500 fmol”. On luciferase [2], the “reaction efficiency of ATP (fraction) as luciferase substrate” value is on record as “approximately 1/1000”. On luciferase [2] (has been reported), the “activity to ATP as substrate for luminescent reaction catalyzed by luciferase” value is 0.6×10^−3.

`Nc1nc2c(ncn2[C@@H]2O[C@H](COP(=O)(O)O)[C@@H](O)[C@H]2O)c(=O)[nH]1` [GMP]: the Specificity result in the assay with thermostable PPDK is “CMP (0), GMP (0)”.

With `O=c1ccn([C@@H]2O[C@H](COP(=O)(O)O)[C@@H](O)[C@H]2O)c(=O)[nH]1` [UMP], in the assay on thermostable PPDK, the Specificity is recorded as 0.

On to `Nc1ccn([C@@H]2O[C@H](COP(=O)(O)O)[C@@H](O)[C@H]2O)c(=O)n1` [CMP], for which the Specificity entry in the assay with thermostable PPDK is on record as “CMP (0), GMP (0)”.

On to `Nc1ncnc2c1ncn2[C@@H]1O[C@H](COP(=O)(O)O)[C@@H](O)[C@H]1O` [AMP], for which the Km in the assay with thermostable PPDK (have been reported, read-out: Michaelis constants (Km) of PPDK and AMP) is 5 µM. Further, in the assay with thermostable PPDK, the Specificity was 100 and the Michaelis constants was 501 µM. The “AMP concentration at luminescence peak” value in assay [3] is listed as “around 100 μM”.

As for `O=C(O)[C@H]1CSC(c2nc3ccc(O)cc3s2)=N1` [D-luciferin], the Michaelis constants in the assay with thermostable luciferase is 1.5104 M (D-luciferin).

For the compound `Cc1cn([C@H]2C[C@H](O)[C@@H](COP(=O)(O)O)O2)c(=O)[nH]c1=O` [TMP], the Specificity in the assay with thermostable PPDK was 0.

In the case of `Nc1ncnc2c1ncn2[C@@H]1O[C@H](COP(=O)(O)OP(=O)(O)OP(=O)(O)O)[C@@H](O)[C@H]1O` [ATP], the Michaelis constants with thermostable PPDK was 201 µM.
